# According to ChEMBL document CHEMBL1201862, “PubChem BioAssay data set” (2004):
#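 Growth conditions: 96-well plates. Treatment: test compound, 48 hours, 5 concentrations. Analysis: linear interpolation between bracketing concentrations; unreached endpoints set to highest concentration. At the GI50, growth is halved.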 Activity calls are given as the source filed them. Cut-off read from the data, not from the text of the source: active = GI50 up to about 1.1 µM and inactive = higher.
# Tests used:
# Test in all cases: inhibition of tumour cell growth, NCI panel, 48 h
# RXF 393 = tested on: RXF 393
# HCT-15 = tested on: HCT-15
# SK-MEL-5 = tested on: SK-MEL-5
# MOLT-4 = tested on: MOLT-4
# M14 = tested on: M14
# Hs-578T = tested on: Hs-578T
# SNB-19 = tested on: SNB-19
# A549 = tested on: A549
# HT-29 = tested on: HT-29
# HL-60 = tested on: HL-60
# PC-3 = tested on: PC-3
# T47D = tested on: T47D
# OVCAR-4 = tested on: OVCAR-4
# MCF7 = tested on: MCF7
# KM12 = tested on: KM12
# COLO 205 = tested on: COLO 205
# MDA-N = tested on: MDA-N
# IGROV-1 = tested on: IGROV-1
# OVCAR-3 = tested on: OVCAR-3
# HOP-92 = tested on: HOP-92
SMILES,GI50 (RXF 393),GI50 (HCT-15) [µM],GI50 (SK-MEL-5),GI50 (MOLT-4),GI50 (M14),GI50 (Hs-578T),GI50 (SNB-19),GI50 (A549),GI50 (HT-29),GI50 (HL-60),GI50 (PC-3),GI50 (T47D),GI50 (OVCAR-4),GI50 (MCF7),GI50 (KM12),GI50 (COLO 205),GI50 (MDA-N),GI50 (IGROV-1),GI50 (OVCAR-3),GI50 (HOP-92)
COc1ccc(OC)c(/N=C/c2cc(OC)c(OC)c(OC)c2)c1,> 100 µM (inactive),> 92.7,> 100 µM (inactive),68.9 µM (inactive),> 100 µM (inactive),> 100 µM (inactive),> 100 µM (inactive),> 100 µM (inactive),> 100 µM (inactive),48.9 µM (inactive),> 100 µM (inactive),> 100 µM (inactive),> 85.1 µM (inactive),62.4 µM (inactive),> 80 µM (inactive),> 100 µM (inactive),40.1 µM (inactive),> 82.8 µM (inactive),–,–
O/N=C1\C=Cc2nn(-c3ccccc3)nc2\C1=N/O,–,4.38,2.24 µM (inactive),2.55 µM (inactive),5.79 µM (inactive),1.85 µM (inactive),5.5 µM (inactive),3.05 µM (inactive),4.85 µM (inactive),2.03 µM (inactive),3.25 µM (inactive),5.47 µM (inactive),5.36 µM (inactive),2.69 µM (inactive),4.55 µM (inactive),3.7 µM (inactive),7.96 µM (inactive),2.79 µM (inactive),4.67 µM (inactive),8.26 µM (inactive)
COC(=O)CNC(=O)/C=C/[C@H](O[Si](C)(C)C(C)(C)C)[C@H](/C=C/C(=O)NCC(=O)OC)O[Si](C)(C)C(C)(C)C,> 25 µM (inactive),> 25,> 25 µM (inactive),> 25 µM (inactive),–,> 25 µM (inactive),> 25 µM (inactive),> 25 µM (inactive),> 25 µM (inactive),–,> 25 µM (inactive),> 25 µM (inactive),> 25 µM (inactive),> 25 µM (inactive),> 25 µM (inactive),> 25 µM (inactive),> 25 µM (inactive),> 25 µM (inactive),> 25 µM (inactive),> 25 µM (inactive)
C=CC(C)(C)C(=C)C(=O)N(C)c1ccccc1I,> 100 µM (inactive),> 100,72.8 µM (inactive),83.2 µM (inactive),> 100 µM (inactive),57.9 µM (inactive),> 100 µM (inactive),> 100 µM (inactive),> 100 µM (inactive),–,> 100 µM (inactive),> 100 µM (inactive),48.3 µM (inactive),> 100 µM (inactive),> 100 µM (inactive),> 100 µM (inactive),> 100 µM (inactive),–,> 100 µM (inactive),> 100 µM (inactive)
CC1=CC(c2ccccc2)OP1(=O)c1ccccc1 (centres undefined),–,> 100,> 100 µM (inactive),–,> 100 µM (inactive),> 100 µM (inactive),> 100 µM (inactive),> 100 µM (inactive),> 100 µM (inactive),> 100 µM (inactive),> 100 µM (inactive),> 100 µM (inactive),> 100 µM (inactive),> 100 µM (inactive),> 100 µM (inactive),> 100 µM (inactive),> 100 µM (inactive),> 100 µM (inactive),> 100 µM (inactive),> 100 µM (inactive)
Cc1cc(C)nc(NS(=O)(=O)c2ccc(Nc3nncc(=O)n3N)cc2)n1,–,14.5,17 µM (inactive),15.5 µM (inactive),34.8 µM (inactive),29.6 µM (inactive),30.6 µM (inactive),34.8 µM (inactive),16.9 µM (inactive),17.4 µM (inactive),21.5 µM (inactive),16.3 µM (inactive),18.1 µM (inactive),16.7 µM (inactive),36.2 µM (inactive),35.4 µM (inactive),16 µM (inactive),15.1 µM (inactive),16.3 µM (inactive),–
CCC1=C(c2ccc(OC)cc2)CC[C@@]2(CCNC2=O)[C@@H]1C,–,> 100,22.1 µM (inactive),24.9 µM (inactive),> 100 µM (inactive),> 52.2 µM (inactive),> 100 µM (inactive),> 100 µM (inactive),> 67.6 µM (inactive),–,> 78.2 µM (inactive),> 50.7 µM (inactive),> 100 µM (inactive),70.8 µM (inactive),> 94.2 µM (inactive),> 63.4 µM (inactive),> 93.1 µM (inactive),> 100 µM (inactive),> 100 µM (inactive),> 100 µM (inactive)
C=C(CO)[C@H]1Oc2ccc(C(C)=O)cc2[C@@H]1O,> 100 µM (inactive),80.9,> 100 µM (inactive),> 100 µM (inactive),> 100 µM (inactive),77.8 µM (inactive),> 100 µM (inactive),> 100 µM (inactive),> 100 µM (inactive),> 100 µM (inactive),> 100 µM (inactive),> 100 µM (inactive),> 100 µM (inactive),> 100 µM (inactive),> 100 µM (inactive),> 100 µM (inactive),22.2 µM (inactive),> 100 µM (inactive),> 100 µM (inactive),–
C=C1C(=O)O[C@H]2C1C[C@@H](OC(C)=O)/C(C)=C/CC[C@@]1(C)O[C@H]21 (some centres undefined),6.53 µM (inactive),6.53,5.53 µM (inactive),2 µM (inactive),0.687 µM (active),26.1 µM (inactive),26 µM (inactive),49.7 µM (inactive),20.1 µM (inactive),–,15.3 µM (inactive),7.1 µM (inactive),13 µM (inactive),10.3 µM (inactive),21.8 µM (inactive),3.7 µM (inactive),2.93 µM (inactive),7.67 µM (inactive),–,16 µM (inactive)
C=CCOC(=O)C[C@H](NC(=O)[C@H](Cc1ccc(O)cc1)NCC(F)(F)F)C(=O)OCC=C,> 100 µM (inactive),> 100,30.5 µM (inactive),25.1 µM (inactive),41.7 µM (inactive),41.7 µM (inactive),> 100 µM (inactive),> 100 µM (inactive),> 100 µM (inactive),–,77.8 µM (inactive),23.6 µM (inactive),> 100 µM (inactive),53.8 µM (inactive),> 100 µM (inactive),31.8 µM (inactive),35.3 µM (inactive),> 100 µM (inactive),–,> 100 µM (inactive)
CC(=O)OC1CC[C@@]2(C)C(C1)CC(OC(C)=O)[C@@H]1C2CC(OC(C)=O)[C@]2(C)C(C(C)CC=C(c3ccc(Cl)cc3)c3ccc(Cl)cc3)CCC12 (some centres undefined),–,38.1,55.1 µM (inactive),20 µM (inactive),80.4 µM (inactive),25.9 µM (inactive),58.6 µM (inactive),64 µM (inactive),39 µM (inactive),4.7 µM (inactive),23.6 µM (inactive),32.1 µM (inactive),76.6 µM (inactive),38.8 µM (inactive),64 µM (inactive),> 100 µM (inactive),> 100 µM (inactive),> 100 µM (inactive),–,–
